The values below come from ChEMBL document CHEMBL1201862, “PubChem BioAssay data set” (2004).

By IC90 is commonly meant the concentration at which the effect reaches the 90% level. By AC50 is commonly meant the midpoint of the concentration-response curve, whichever way the signal moves. A word on the CC50: it is the concentration that lowers cell viability or growth by half. The term IC50 denotes the point on the concentration scale where inhibition reaches its midpoint. One may read the EC50 as the concentration at which the effect is half-maximal.

A short description of test [1]: inhibitors of non-replicating M. tuberculosis, dose response, luciferase, dry powder (AID 651619). The test is classed as functional. To be noted: Mycobacterium tuberculosis.
Test [2] in a line: inhibitors of non-replicating M. tuberculosis, dose response, luciferase, dry powder (AID 651620). It counts as functional. To be noted: Mycobacterium tuberculosis.
Test [3] can be described thus: PAX5 cellular inhibition readout – cell-based, plate reader, dry powder samples, selectivity assay for PAX8 inhibitor project, dose response (AID 743047).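 Note: HEK293 cells carrying a Pax5 driven CD19 promoter luciferase reporter; potency of inhibitors that lower reporter luminescence.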 The test is classed as functional.
Test [4] can be described thus: inhibitors acting on PAX2 in cells – cell-based, plate reader, dry powder samples, selectivity assay for PAX8 inhibitor project, dose response (AID 743048).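 Note: HEK293 cells carrying a WT1 promoter luciferase reporter driven by expressed Pax2; potency is for inhibition of Pax2 driven reporter signal.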 The test is classed as functional.
The target of another test is Paired box protein Pax-8 (Homo sapiens, UniProt Q06710). Description: PAX8 transcriptional activity inhibition in RMG-I – RMG-I cells, luciferase, cherry-pick, dose response (AID 687027).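 Note: luciferase reporter driven by Pax8 target thyroperoxidase promoter measured by SteadyGlo luminescence.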 The test is classed as functional, cell-based.
Test [5] is described as follows: PAX8-dependent cell viability loss – plate reader, dry powder, dose response (AID 743049). The test is classed as functional, cell-based.
Test [6] can be described thus: OV-90 cell viability loss – plate reader, dry powder, SA8, PAX8 inhibitor project, dose response (AID 743149). It counts as functional, cell-based.
A short description of test [7]: viability of BHK-21 cells – cell-based, secondary screen, cytotoxicity control for flavivirus guanylyltransferase probe project (AID 624078). The test is classed as functional.
The nature of test [8]: viability loss in HepG2 hepatoma cells – cell-based, cherry-picks, set 5, cytotoxicity control, dose response (AID 1053118). The test is classed as functional.
Test [9] in a line: viability loss in A549 lung cancer cells – cell-based, cherry-picks, […], cytotoxicity control, dose response (AID 1053119). The test is classed as functional.
The nature of test [10]: viability loss in HEK293 kidney cells – cell-based, cherry-picks, set 5, cytotoxicity control, dose response (AID 1053117). The test is classed as functional.
Test [11] in a line: blockers of FN fibrillogenesis by fibroblasts – AH1F cells, Alexa488-FN fluorescence, cherry-picks, dose response (AID 1035475). The test is classed as functional, cell-based.
A short description of test [12]: non-specific 3'UTR reporter inhibition in Clone20-Shn3RL – cell-based, Renilla luciferase, cherry-picked, counter-screen for Shn3 inhibitor project, dose response (AID 624133). It counts as functional. In general terms: The purpose of a counterscreen is to sort out artefacts and off-target activity.
In the next test the target is Galanin receptor type 3 (Homo sapiens, UniProt O60755). Description: Fluorescence-based cell-based primary high throughput dose response assay to identify antagonists of the Galanin Receptor 3 (GalR3). It counts as functional.
Test [13] is described as follows: loss of viability in HepG2 cells – cell-based, CellTiter-Glo, cherry-picked, cytotoxicity control for Shn3 inhibitor project, dose response (AID 624134). It counts as functional. For orientation: Cellular ATP, detected with luciferase, serves as a proxy for viable cell number.
The next test is described as follows: cells. The test is classed as functional, cell-based. To be noted: HEK-CNG.
A short description of test [14]: off-target signal loss in HeLa-CEM21 co-culture – HeLa F-luc CTL cells, cherry-picked, counter-screen for HIV-1 Env fusion inhibitor project, dose response (AID 652040).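 Note: potency for signal decrease marking cytotoxic or nonspecific inhibition.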 The test is classed as functional, cell-based.
Test [15] is described as follows: HIV-1 AD8 envelope cell-cell fusion blockers – cherry-pick, dose response (AID 652062).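 Note: luciferase signal from cell-cell fusion driven by HIV-1 clade B AD8 Env; potency is for inhibitors of fusion seen as a drop in luminescence.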 It counts as functional, cell-based.
A short description of test [16]: HEK-293T cell viability reduction – luminescence, B-cell screen hits, cytotoxicity control for BCR NF-kB inhibitor project, dose response (AID 489021).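 Note: HEK-293T cells carrying an NF-kB luciferase reporter; cells exposed to compound for about 14 hours before viability readout.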 It counts as functional, cell-based.
The nature of test [17]: reduction of Shn3 3'UTR-driven luciferase in osteoblasts – cell-based, Clone20 osteoblasts, firefly luciferase, cherry-picked, dose response (AID 624132).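 Note: firefly luciferase luminescence from reporter carrying the Shn3 3'UTR in osteoblasts.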 It counts as functional.
The target of test [18] is COUP transcription factor 2 (Homo sapiens, UniProt P24468). Description: Luminescence-based cell-based high throughput dose response assay to identify inhibitors of COUP-TFII (NR2F2). It counts as functional.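 Note: HEK293 cells transiently cotransfected with COUP-TFII expression vector and reporter; luciferase reporter luminescence driven by COUP-TFII from the pX2-168 reporter plasmid.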
Test [19] can be described thus: potency of ADAM10 substrate cleavage blockers – biochemical, QFRET, dose response (AID 743254).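 Note: ADAM10 enzyme with the DM2 quenched FRET peptide as substrate; EDANS fluorescence gain as the protease cuts the substrate; inhibitor potency against ADAM10 proteolytic activity.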
For test [20], the target named is Peroxisome proliferator-activated receptor gamma/Nuclear receptor coactivator 2 (Homo sapiens, UniProt P37231). Description: TR-FRET dose response biochemical High Throughput Screening assay for agonists of the steroid receptor coactivator 2 (SRC-2) recruitment by the peroxisome proliferator-activated receptor gamma (PPAR gamma): non-selective agonists. [Related pubchem assays: 1297, 1032 ]. The test is classed as functional.

Test [21] deals with Peroxisome proliferator-activated receptor gamma/Nuclear receptor coactivator 1 (Homo sapiens, UniProt P37231). Description: TR-FRET dose response biochemical High Throughput Screening assay for agonists of the steroid receptor coactivator 1 (SRC-1) recruitment by the peroxisome proliferator-activated receptor gamma (PPAR gamma): non-selective agonists. [Related pubchem assays (depositor defined):AID1300, AID1808, AID504735, AID631]. The test is classed as protein assay.

The next test addresses T1, Protein skinhead-1 (Caenorhabditis elegans, UniProt P34707).
T1 sequence (P34707 whole entry): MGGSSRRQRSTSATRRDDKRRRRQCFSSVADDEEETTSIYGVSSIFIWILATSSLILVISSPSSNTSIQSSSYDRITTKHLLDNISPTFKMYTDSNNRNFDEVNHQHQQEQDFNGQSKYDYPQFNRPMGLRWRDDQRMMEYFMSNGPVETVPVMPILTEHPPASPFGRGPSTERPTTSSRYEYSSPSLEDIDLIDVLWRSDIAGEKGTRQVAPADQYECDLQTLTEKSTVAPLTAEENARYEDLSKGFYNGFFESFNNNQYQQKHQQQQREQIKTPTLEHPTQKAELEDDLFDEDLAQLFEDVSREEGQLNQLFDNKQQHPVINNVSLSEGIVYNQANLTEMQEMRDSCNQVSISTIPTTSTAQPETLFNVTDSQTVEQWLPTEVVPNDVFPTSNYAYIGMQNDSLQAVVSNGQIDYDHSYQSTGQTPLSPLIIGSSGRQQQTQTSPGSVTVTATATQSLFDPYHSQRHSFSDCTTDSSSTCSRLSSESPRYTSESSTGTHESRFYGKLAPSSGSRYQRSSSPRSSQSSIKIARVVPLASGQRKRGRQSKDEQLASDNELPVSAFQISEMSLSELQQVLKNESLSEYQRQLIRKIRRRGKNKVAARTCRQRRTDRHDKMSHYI
The test is classed as functional.

The target in test [22] is Disintegrin and metalloproteinase domain-containing protein 17 (Homo sapiens, UniProt P78536). Description: inhibition of ADAM17 substrate cleavage – biochemical, quenched FRET substrate, counter-screen for ADAM10 exosite inhibitor project, dose response (AID 743253).
Test [23] addresses Peroxisome proliferator-activated receptor gamma/Nuclear receptor coactivator 3 (Homo sapiens, UniProt P37231). Description: TR-FRET dose response biochemical High Throughput Screening assay for agonists of the steroid receptor coactivator 3 (SRC-3) recruitment by the peroxisome proliferator-activated receptor gamma (PPAR gamma): non-selective agonists. [Related pubchem assays: 1301 (Confirmation screen.), 1048 (Primary screen.)]. It counts as functional.

A short description of test [24]: Late stage counterscreen for inhibitors of Trypanosoma brucei methionyl tRNA synthetase (MetRS): Luminescence-based cell-based high throughput dose response assay to identify compounds that are cytotoxic to Jurkat human T lymphocyte cells. The test is classed as functional.
Test [25] can be described thus: cervical cancer cell viability loss – HeLa, 24 h, plate reader, powder samples, set 3, cytotoxicity control, dose response (AID 651864). It counts as functional, cell-based.
Test [26] is described as follows: anti-trypanosomal activity in BESM host cells – imaging, CA-I/72 strain, bovine embryo skeletal muscle, dry powder, dose response (AID 651885). It counts as functional, cell-based.

Each structure is given as a SMILES string. The source made the active and inactive calls. Bounds are passed on as bounds.

Galanin receptor type 3, sequence (O60755 whole entry): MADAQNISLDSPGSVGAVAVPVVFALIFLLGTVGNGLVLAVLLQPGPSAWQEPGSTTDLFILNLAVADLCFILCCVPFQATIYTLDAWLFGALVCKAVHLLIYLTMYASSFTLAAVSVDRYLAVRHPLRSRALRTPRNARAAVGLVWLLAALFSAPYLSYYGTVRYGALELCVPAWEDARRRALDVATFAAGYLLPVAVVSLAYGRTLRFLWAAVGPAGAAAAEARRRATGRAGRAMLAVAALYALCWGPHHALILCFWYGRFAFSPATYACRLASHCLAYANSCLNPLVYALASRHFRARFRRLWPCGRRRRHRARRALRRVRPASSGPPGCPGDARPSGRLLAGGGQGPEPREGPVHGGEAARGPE
Disintegrin and metalloproteinase domain-containing protein 17, sequence (P78536 whole entry, the tested form may be a part): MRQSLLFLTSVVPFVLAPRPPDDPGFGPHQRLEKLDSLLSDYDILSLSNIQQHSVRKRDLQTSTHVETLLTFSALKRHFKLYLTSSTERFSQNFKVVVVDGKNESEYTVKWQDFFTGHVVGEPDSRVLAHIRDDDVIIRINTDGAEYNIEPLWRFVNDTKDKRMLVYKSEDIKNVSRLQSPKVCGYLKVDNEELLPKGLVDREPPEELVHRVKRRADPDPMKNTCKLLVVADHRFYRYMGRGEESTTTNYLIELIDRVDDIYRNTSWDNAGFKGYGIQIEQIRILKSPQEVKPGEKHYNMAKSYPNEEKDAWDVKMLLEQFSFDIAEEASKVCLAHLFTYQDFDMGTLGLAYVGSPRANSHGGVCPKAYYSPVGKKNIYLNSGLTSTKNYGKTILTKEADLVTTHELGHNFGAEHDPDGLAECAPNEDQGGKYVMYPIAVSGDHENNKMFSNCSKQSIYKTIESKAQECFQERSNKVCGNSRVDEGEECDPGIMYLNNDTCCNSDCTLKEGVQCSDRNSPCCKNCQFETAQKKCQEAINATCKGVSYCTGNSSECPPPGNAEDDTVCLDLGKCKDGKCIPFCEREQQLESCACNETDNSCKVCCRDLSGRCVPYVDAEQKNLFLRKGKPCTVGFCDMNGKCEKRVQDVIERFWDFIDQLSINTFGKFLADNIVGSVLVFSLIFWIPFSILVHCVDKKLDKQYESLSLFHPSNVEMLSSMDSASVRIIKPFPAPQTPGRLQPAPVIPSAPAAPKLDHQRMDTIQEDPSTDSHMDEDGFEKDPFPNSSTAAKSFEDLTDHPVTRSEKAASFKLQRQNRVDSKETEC
Peroxisome proliferator-activated receptor gamma/Nuclear receptor coactivator 3, sequence (P37231 whole entry): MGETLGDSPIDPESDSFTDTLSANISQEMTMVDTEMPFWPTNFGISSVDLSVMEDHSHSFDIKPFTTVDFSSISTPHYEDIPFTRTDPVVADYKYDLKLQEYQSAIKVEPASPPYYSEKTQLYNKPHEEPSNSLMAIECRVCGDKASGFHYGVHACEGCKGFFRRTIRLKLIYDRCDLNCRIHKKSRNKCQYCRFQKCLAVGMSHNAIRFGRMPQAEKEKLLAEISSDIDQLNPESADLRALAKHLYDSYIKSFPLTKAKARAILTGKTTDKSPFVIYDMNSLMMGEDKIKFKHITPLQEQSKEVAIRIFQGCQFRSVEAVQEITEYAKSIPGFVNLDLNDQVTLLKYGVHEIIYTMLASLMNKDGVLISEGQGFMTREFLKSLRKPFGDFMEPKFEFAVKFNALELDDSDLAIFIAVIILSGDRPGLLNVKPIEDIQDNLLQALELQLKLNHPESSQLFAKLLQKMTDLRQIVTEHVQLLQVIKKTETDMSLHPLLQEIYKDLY
Peroxisome proliferator-activated receptor gamma/Nuclear receptor coactivator 3, sequence (Q9Y6Q9 whole entry, further chain): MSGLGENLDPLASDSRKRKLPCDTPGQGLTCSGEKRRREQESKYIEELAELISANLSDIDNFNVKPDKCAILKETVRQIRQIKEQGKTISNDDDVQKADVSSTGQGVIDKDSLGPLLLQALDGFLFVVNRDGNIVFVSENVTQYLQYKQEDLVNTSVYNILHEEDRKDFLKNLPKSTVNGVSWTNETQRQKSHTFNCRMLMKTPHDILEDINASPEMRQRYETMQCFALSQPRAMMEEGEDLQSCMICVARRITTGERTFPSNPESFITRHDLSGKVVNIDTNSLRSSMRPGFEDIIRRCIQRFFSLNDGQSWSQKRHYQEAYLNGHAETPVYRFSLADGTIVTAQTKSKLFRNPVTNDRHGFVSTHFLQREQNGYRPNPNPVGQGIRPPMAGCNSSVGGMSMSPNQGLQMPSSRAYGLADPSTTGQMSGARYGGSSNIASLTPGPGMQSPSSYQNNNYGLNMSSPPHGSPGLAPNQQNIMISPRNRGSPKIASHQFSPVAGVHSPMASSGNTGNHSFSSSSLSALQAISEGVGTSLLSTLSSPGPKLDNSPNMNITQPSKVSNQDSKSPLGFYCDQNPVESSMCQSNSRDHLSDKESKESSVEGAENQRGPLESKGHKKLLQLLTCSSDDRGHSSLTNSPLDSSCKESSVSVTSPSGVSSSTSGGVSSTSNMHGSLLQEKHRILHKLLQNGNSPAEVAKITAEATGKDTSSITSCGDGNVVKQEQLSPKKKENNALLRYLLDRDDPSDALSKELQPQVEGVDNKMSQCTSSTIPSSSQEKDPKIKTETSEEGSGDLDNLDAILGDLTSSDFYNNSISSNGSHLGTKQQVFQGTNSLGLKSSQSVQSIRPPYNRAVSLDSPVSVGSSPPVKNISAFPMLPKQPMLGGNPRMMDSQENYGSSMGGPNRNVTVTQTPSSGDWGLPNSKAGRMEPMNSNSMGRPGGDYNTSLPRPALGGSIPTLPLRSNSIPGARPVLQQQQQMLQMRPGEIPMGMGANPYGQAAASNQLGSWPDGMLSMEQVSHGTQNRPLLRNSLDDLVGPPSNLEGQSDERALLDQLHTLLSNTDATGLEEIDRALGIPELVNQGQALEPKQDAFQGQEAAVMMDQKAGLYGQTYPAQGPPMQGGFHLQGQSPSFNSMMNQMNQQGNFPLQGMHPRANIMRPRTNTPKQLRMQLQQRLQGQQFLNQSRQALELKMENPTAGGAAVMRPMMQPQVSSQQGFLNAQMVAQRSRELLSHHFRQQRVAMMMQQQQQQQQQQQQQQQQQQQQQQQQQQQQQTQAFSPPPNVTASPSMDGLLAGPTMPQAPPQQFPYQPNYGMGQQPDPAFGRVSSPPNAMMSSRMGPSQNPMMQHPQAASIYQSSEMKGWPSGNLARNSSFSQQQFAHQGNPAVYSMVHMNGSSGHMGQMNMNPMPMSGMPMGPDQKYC
Peroxisome proliferator-activated receptor gamma/Nuclear receptor coactivator 1, sequence (P37231 whole entry): as the sequence (P37231 whole entry) above
Peroxisome proliferator-activated receptor gamma/Nuclear receptor coactivator 1, sequence (Q15788 whole entry, further chain): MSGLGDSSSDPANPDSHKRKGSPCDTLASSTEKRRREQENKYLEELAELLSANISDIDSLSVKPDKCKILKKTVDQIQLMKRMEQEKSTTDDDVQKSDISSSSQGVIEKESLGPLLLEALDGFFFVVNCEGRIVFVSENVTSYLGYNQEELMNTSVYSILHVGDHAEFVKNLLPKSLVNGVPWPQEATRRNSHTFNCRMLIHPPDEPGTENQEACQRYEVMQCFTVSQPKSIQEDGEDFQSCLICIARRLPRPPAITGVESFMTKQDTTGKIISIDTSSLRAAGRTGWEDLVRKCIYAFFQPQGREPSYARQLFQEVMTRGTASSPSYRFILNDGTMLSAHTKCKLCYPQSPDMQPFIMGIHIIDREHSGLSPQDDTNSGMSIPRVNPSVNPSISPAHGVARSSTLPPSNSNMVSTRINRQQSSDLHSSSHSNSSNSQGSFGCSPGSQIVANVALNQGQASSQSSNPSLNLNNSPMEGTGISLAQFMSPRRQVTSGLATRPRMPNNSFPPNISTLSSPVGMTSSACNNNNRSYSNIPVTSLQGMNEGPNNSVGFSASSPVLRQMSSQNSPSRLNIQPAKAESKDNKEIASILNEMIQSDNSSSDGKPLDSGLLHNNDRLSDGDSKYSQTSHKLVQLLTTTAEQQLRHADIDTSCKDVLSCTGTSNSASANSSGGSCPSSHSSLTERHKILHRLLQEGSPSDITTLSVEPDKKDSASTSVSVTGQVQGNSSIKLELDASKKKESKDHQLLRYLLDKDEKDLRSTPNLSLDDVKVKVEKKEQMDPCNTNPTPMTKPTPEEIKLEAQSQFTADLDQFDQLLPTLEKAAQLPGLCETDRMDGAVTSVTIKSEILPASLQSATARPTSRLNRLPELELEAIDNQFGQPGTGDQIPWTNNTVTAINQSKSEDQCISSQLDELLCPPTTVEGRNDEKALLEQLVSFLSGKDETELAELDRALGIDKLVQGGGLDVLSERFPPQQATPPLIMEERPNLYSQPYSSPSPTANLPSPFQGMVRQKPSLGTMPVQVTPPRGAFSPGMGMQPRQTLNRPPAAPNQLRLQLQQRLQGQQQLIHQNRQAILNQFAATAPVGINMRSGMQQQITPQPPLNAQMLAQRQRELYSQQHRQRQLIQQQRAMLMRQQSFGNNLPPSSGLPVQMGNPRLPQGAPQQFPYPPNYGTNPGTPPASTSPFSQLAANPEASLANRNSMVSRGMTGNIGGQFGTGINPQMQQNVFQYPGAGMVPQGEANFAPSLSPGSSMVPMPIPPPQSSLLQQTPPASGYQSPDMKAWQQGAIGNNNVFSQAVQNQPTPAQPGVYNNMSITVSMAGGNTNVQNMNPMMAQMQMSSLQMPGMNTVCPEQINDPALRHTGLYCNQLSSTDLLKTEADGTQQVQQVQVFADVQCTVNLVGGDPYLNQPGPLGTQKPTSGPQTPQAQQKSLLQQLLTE

Consider `O=S(=O)(Cc1ccccc1)c1nnc(-c2ccccc2)o1`, for which the IC90 in test [1] and in test [2] was 2 µM (active) in each case.

Take `C[C@H]1CN([C@@H](C)CO)C(=O)Cc2cc(NC(=O)NC3CCCCC3)ccc2O[C@@H]1CN(C)Cc1ccc(-c2ccccc2)cc1`: the AC50 was 20.8 µM (active) in test [3]; 19.3 µM (active) in [4]; 14.5 µM (active) at Paired box protein Pax-8; > 70 µM (inactive) in test [5]; > 70 µM (inactive) in [6].

On to `Cn1c(=O)c2[nH]c(-c3ccc(Cl)cc3)c(O)c2n(C)c1=O`, for which the CC50 in test [7] is > 100 µM (active).

Take `CO[C@@H]1CN(C)C(=O)c2ccc(NC(=O)Nc3ccc(Cl)c(Cl)c3)cc2OC[C@@H](C)NC[C@@H]1C`: the AC50 in test [8] is 24.2 µM (active); in [9], 13.1 µM (active); in test [10] it was 20.4 µM (active); in test [11], 36.8 µM (active).

On to `Cc1cc(C)c(CN2CCN(C(=O)Cn3cnc4c(NCc5ccccc5)ncnc43)CC2)c(C)c1`, for which the AC50 in [12] is 0.818 µM (active); in [13], 0.773 µM (active); in [14], 27.3 µM (active); in test [15] it was 1.59 µM (active); in test [17], 0.417 µM (active). The values for the IC50 (on Galanin receptor type 3; in test [16]; in test [18]) were 0.363 µM (active), > 80 µM (inactive) and 2.71 µM (active), respectively. Moreover, in “cells”, the EC50 was > 29.9 µM (inactive).

Take `COc1ccc2nc(SCC(=O)Nc3ccc(S(=O)(=O)N4CCCC4)cc3)c(C#N)cc2c1`: the IC50 in [19] is > 69.5 µM (inactive); on Protein skinhead-1, > 100 µM (inactive); in test [22] it was > 69.5 µM (inactive). In addition, the results for the EC50 in test [20], in test [21] and in test [23] were 7.11 µM (active), 7.32 µM (active) and > 26.5 µM (not active), respectively.

As for `O=C(CCC(=O)Nc1cccc([N+](=O)[O-])c1)NN=Cc1cccs1`, the IC50 in test [24] was > 83.3 µM (inactive).

`CCn1nccc1NCc1ccc(N2CCCC2)cc1`: the AC50 in test [25] is > 160 µM (inactive).

With `CC(C)N1C[C@H](C)[C@@H](CN(C)C(=O)OC(C)(C)C)Oc2c(NC(=O)c3ccccc3)cccc2C1=O`, the IC50 in test [26] was > 20 µM (inactive).
